Reference: patent US9555137B2, “Uses of labeled HSP90 inhibitors” (Sloan-Kettering Institute for Cancer Research, priority 2011, dated 2017)
Where two headings read alike, the source gives them in different places.

Key:
AML cell lines = test: cell killing and apoptosis in AML cell lines (Acridine Orange/Ethidium Bromide); format: cell-based, human; conditions: cultured HEL cells
Procedure: To evaluate the sensitivity spectrum of AML cell lines to HSP90 inhibitors, and to investigate a possible relationship between their genetic background and induction of apoptosis by HSP90 therapy, we made use of a varied cell panel. […]
A ten-fold, in MOLM-13 and M0-91, and two-fold, in Kasumi-1 and SKNO-1, increase in caspase-3,7 activation was observed as early as 24 h. Essentially no live cells were detected for the M0-91 cell line after 48 h of HSP90 inhibitor treatment. […]
Cells were treated for 24, 48 or 72 h with vehicle (DMSO) or inhibitors as indicated. Following staining with Acridine Orange and Ethidium Bromide (1:1 mix of 100 µg/ml), cells were visualized with a fluorescent microscope (Zeiss Axiovert 40 CFL) and counted. Percentage of apoptotic cells was determined from 200-300 cells counted in each group. The percentage of apoptotic cells was calculated as: % Apoptotic cells=(total number of cells with apoptotic nuclei/total number of cells counted)×100.

MOLM-13 cells = format: cell-based, human
oncogenic HSP90 [1] = test: PU-FITC binding to EpCAM+ circulating tumor cells relative to leukocytes; format: cell-based, human; conditions: patient with HER2+ metastatic breast cancer
Procedure: FIG. 20. PU-H71-FITC2 accumulation in EpCAM+ Circulating Tumor Cells: PBMC's isolated from whole blood were pre-treated with PU-FITC or controls (PU-FITC9, DMSO, 1 μM/2×10^6 cells/ml, 4 hrs). Cells were then stained with CD45, CD14 and EpCAM antibodies. (A) Cells are gated to exclude dead cells. Viable cells are then gated to determine EpCAM+ vs CD45+ cells. Monocytes are excluded from the analysis by gating the CD45+ cells further as FSC vs. CD14. (B) Histogram plots showing the PU-FITC Median florescence intensity (MFI) of CD45+CD14− cells (blue) and EpCAM+ cells (Red). The drug accumulation in EpCAM+ cells is calculated as the ratio of MFI EpCAM+/MFI CD45+CD14− (circulating tumor cells/leukocytes) after subtracting the values of the DMSO and PU-FITC9 controls (used to control for non-specific and background binding). […]
All experimental blood sampling procedures were performed under the Institutional Review Board-approved protocols at Memorial Sloan Kettering Cancer Center. […] PBMC's are isolated on ficoll gradients, cells are counted and viability determined by trypan blue dye exclusion assay. […] Values are calculated as a ratio of the MFI of Tumor (EpCAM+CD45−CD14−): MFI of EpCAM−CD45+CD14− cells. […] This allows quantitation of the FITC fluorescence intensity in molecules of equivalent soluble fluorochrome (MESF units). […]

oncogenic HSP90 [2] = test: PU-FITC binding in primary leukemia samples, blasts relative to normal lymphocytes (flow cytometry); format: cell-based, human; conditions: blast crisis CML (bcCML) cells
HSP90 [3] = test: concomitant binding to HSP90 and streptavidin in live K562 cells; format: cell-based; conditions: for HSP90-streptavidin binding with K562 cells: live K562 cells; for binding in live K562 cells: 100 μM, 4 h
Excerpt: Having shown that some of the molecules bind concomitantly to HSP90 and streptavidin, we next investigated whether this can similarly be accomplished in live cells.

[4] = mouse, in vivo
Excerpt: (§1) We next determined in the brain and plasma of 3×Tg AD mice, the HSP90 inhibitor levels associated with these pharmacodynamic effects (FIG. 43C).

in vivo = conditions: 3×Tg AD, mouse, ip, 50 mg/kg, AUC 0 to 48 h
Excerpt: as §1

[5] = [124I]-PU-H71 PET in cancer patients, tumor exposure to PU-H71; format: in vivo, human; conditions: human blood circulation
HSP90 [6] = test: 131I-PU-H71 saturation binding in intact cancer cells; format: cell-based; conditions: MDA-MB-468 cells
Excerpt: The solutions were shaken in an orbital shaker and after 1 hr the cells were isolated and washed with ice cold Tris-buffered saline using a Brandel cell harvester. […] To calculate the percentage of HSP90, cellular HSP90 expression was quantified by using standard curves created of recombinant HSP90 purified from HeLa cells (Stressgen#ADI-SPP-770).

## O=c1[nH]c2ccccc2n1C1CCN(Cc2ccc(-c3nc4cc5[nH]cnc5cc4nc3-c3ccccc3)cc2)CC1 [AKTi]
AML cell lines
  cells committed to undergo apoptosis: little to no effect

## CC(C)N(CCCn1c(Sc2cc3c(cc2I)OCO3)nc2c(N)ncnc21)C(=S)Nc1ccc(-c2c3ccc(=O)cc-3oc3cc(O)ccc23)c(C(=O)O)c1 [PU-H71-FITC2]
MOLM-13 cells
  viability of MOLM-13 cells: decrease the viability of MOLM-13 cells
Oncogenic HSP90 [1]
  binding of circulating tumor cells relative to leukocytes (CD45+CD14−): around 84 fold
Oncogenic HSP90 [2]
  binding relative to normal lymphocytes: over 4 fold

## CC(C)N(CCCn1c(Sc2cc3c(cc2I)OCO3)nc2c(N)ncnc21)C(=O)CCCC[C@@H]1SC[C@@H]2NC(=O)N[C@@H]21 [PU-H71-biotin2]
HSP90 [3]
  HSP90-streptavidin binding with K562 cells: No

## Nc1ncnc2c1nc(Sc1cc3c(cc1I)OCO3)n2CCCNC(=O)CCCC[C@@H]1SC[C@@H]2NC(=O)N[C@@H]21 [PU-H71-biotin3]
HSP90 [3]
  HSP90-streptavidin binding with K562 cells: No

## Nc1ncnc2c1nc(Sc1cc3c(cc1I)OCO3)n2CCCNC(=O)CCCCCNC(=O)CCCC[C@@H]1SC[C@@H]2NC(=O)N[C@@H]21 [PU-H71-biotin4]
HSP90 [3]
  HSP90-streptavidin binding with K562 cells: No

## Nc1ncnc2c1nc(Sc1cc3c(cc1I)OCO3)n2CCCNC(=O)CCCCCNC(=O)CCCCCNC(=O)CCCC[C@@H]1SC[C@@H]2NC(=O)N[C@@H]21 [PU-H71-biotin5]
HSP90 [3]
  binding in live K562 cells: able to permeate the cell membrane
  HSP90-streptavidin binding with K562 cells: Yes

## Nc1ncnc2c1nc(Sc1cc3c(cc1I)OCO3)n2CCCNC(=O)CCOCCOCCOCCOCCNC(=O)CCCC[C@@H]1SC[C@@H]2NC(=O)N[C@@H]21 [PU-H71-biotin6]
HSP90 [3]; 0.5 μM
  band at approximately 90 kDa in live K562 cells: still shows a faint band
HSP90 [3]
  binding in live K562 cells: able to permeate the cell membrane
  HSP90-streptavidin binding with K562 cells: Yes

## CC(C)N(CCCn1c(Sc2cc3c(cc2I)OCO3)nc2c(N)ncnc21)C(=O)CCCCCNC(=O)CCCCCNC(=O)CCCC[C@@H]1SC[C@@H]2NC(=O)N[C@@H]21 [PU-H71-biotin8]
HSP90 [3]
  binding in live K562 cells: able to permeate the cell membrane
  HSP90-streptavidin binding with K562 cells: Yes

## CC(C)N(CCCn1c(Sc2cc3c(cc2I)OCO3)nc2c(N)ncnc21)C(=O)CCOCCOCCOCCOCCNC(=O)CCCC[C@@H]1SC[C@@H]2NC(=O)N[C@@H]21 [PU-H71-biotin9]
HSP90 [3]
  binding in live K562 cells: able to permeate the cell membrane
  HSP90-streptavidin binding with K562 cells: Yes

## Nc1ncnc2c1nc(Sc1cc3c(cc1I)OCO3)n2CCCNCCOCCOCCOCCNC(=O)CCCC[C@@H]1SC[C@@H]2NC(=O)N[C@@H]21 [PU-H71-biotin]
HSP90 [3]
  HSP90-streptavidin binding with K562 cells: No

## CC(C)N(CCCn1c(Sc2cc3c(cc2I)OCO3)nc2c(N)ncnc21)C(=O)CCCCCNC(=O)CCCC[C@@H]1SC[C@@H]2NC(=O)N[C@@H]21 [PU-H71-blotin7]
HSP90 [3]
  HSP90-streptavidin binding with K562 cells: No

## CC(C)(C)CNCCn1c(Sc2cc3c(cc2I)OCO3)nc2c(N)ncnc21 [PU-HZ151]
[4]
  cortex AUC relative to plasma AUC: 2.5 times
In vivo; exposure of the cortex
  AUC(0-t): 17.5 µM·h
In vivo; exposure of the plasma
  AUC(0-t): 7.1 µM·h

## CC(C)NCCCn1c(Sc2cc3c(cc2[124I])OCO3)nc2c(N)ncnc21 [[^124I]-PU-H71]
[5]
  blood t1/2, rapid clearance: ≈ 20 min
4 h
  tumor uptake from ROI analysis: 0.35±0.07 % ID/g
4 h PET
  activity in ROI circumscribing the entire mouse: 40-50 % of the administered activity
4 h p.a.
  concentration in tumor relative to bone: 9 fold
  concentration in tumor relative to brain: 40 fold
  concentration in tumor relative to heart: 10 fold
  concentration in tumor relative to muscle: 18 fold
  concentration in tumor relative to spleen: 6 fold
24 h
  [Atumor] activity concentration in tumor: ~0.14±0.05 % ID/g
  tumor uptake from ROI analysis: 0.083±0.02 % ID/g
48 h
  tumor uptake from ROI analysis: 0.058±0.02 % ID/g
72 h
  tumor uptake from ROI analysis: 0.031±0.01 % ID/g
100 h
  tumor uptake from ROI analysis: 0.024±0.008 % ID/g
Between 4 and 28 h, no potassium iodide
  maximum thyroid activity: < 0.4 % of the administered activity
By ~12 h postinjection
  tumor-to-blood activity concentration ratio: ≥ 10
post-administration
  time by which cleared from MDA-MB-468 tumors: ≤ 150 h

## CC(C)NCCCn1c(Sc2cc3c(cc2[131I])OCO3)nc2c(N)ncnc21 [^131I-PU-H71]
HSP90 [6]
  available cellular binding sites bound per cell: ≤ 5.5×10^6
  fraction of total cellular HSP90 bound: 26.6-33.5%
